Where “and” joins values, the source holds several entries; their conditions need not be identical. Equal entries are not always repeated. Toxic doses and inconclusive results are not listed.
Tested on: CD2F1 mice, L1210 leukemia ip, survival T/C
Assay: NCI In Vivo Anticancer Drug Screen. Data for tumor model L1210 Leukemia (intraperitoneal) in CD2F1 (CDF1) mice
Conditions: higher = longer survival
Procedure, shortened: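 Vehicle-treated tumor-bearing mice served as controls (C) for compound-treated mice (T). Reported figure is T divided by C.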

[1] = endpoint: mean survival time, dose: 100.0 mg/kg/injection, schedule: Q04DX003 (ip), vehicle: saline with Tween-80
[2] = endpoint: mean survival time, dose: 200.0 mg/kg/injection, schedule: Q04DX003 (ip), vehicle: saline with Tween-80
[3] = endpoint: mean survival time, dose: 400.0 mg/kg/injection, schedule: Q04DX003 (ip), vehicle: saline with Tween-80

## [Cl][Pt][Cl].c1ccc([SeH]c2ccccc2)cc1.c1ccc([SeH]c2ccccc2)cc1
endpoint: mean survival time, dose: 25.0 mg/kg/injection, schedule: Q04DX003 (ip), vehicle: other
  T/C: 97 % of control
endpoint: mean survival time, dose: 50.0 mg/kg/injection, schedule: Q04DX003 (ip), vehicle: other
  T/C: 102 % of control
endpoint: mean survival time, dose: 100.0 mg/kg/injection, schedule: Q04DX003 (ip), vehicle: other
  T/C: 98 % of control
endpoint: mean survival time, dose: 200.0 mg/kg/injection, schedule: Q04DX003 (ip), vehicle: other
  T/C: 101 % of control
endpoint: mean survival time, dose: 400.0 mg/kg/injection, schedule: Q04DX003 (ip), vehicle: other
  T/C: 100 % of control

## O=C(O)CC(c1ccccc1)C(CC(=O)O)c1ccccc1.[NH-]C1CCCCC1[NH-].[Pt+2] (stereo unspecified)
endpoint: median survival time, dose: 3.12 mg/kg/injection, schedule: Q04DX003 (ip), vehicle: saline with Tween-80
  T/C: 107 % of control
endpoint: median survival time, dose: 3.12 mg/kg/injection, schedule: Q04DX003 (ip), vehicle: saline
  T/C: 105 % of control
endpoint: median survival time, dose: 6.25 mg/kg/injection, schedule: Q04DX003 (ip), vehicle: saline with Tween-80
  T/C: 111 % of control
endpoint: median survival time, dose: 6.25 mg/kg/injection, schedule: Q04DX003 (ip), vehicle: saline
  T/C: 102 % of control
endpoint: median survival time, dose: 12.5 mg/kg/injection, schedule: Q04DX003 (ip), vehicle: saline with Tween-80
  T/C: 102 % of control
endpoint: median survival time, dose: 12.5 mg/kg/injection, schedule: Q04DX003 (ip), vehicle: saline
  T/C: 103 % of control
endpoint: median survival time, dose: 25.0 mg/kg/injection, schedule: Q04DX003 (ip), vehicle: saline with Tween-80
  T/C: 111 % of control
endpoint: median survival time, dose: 25.0 mg/kg/injection, schedule: Q04DX003 (ip), vehicle: saline
  T/C: 110 % of control
endpoint: median survival time, dose: 50.0 mg/kg/injection, schedule: Q04DX003 (ip), vehicle: saline with Tween-80
  T/C: 123 % of control
endpoint: median survival time, dose: 50.0 mg/kg/injection, schedule: Q04DX003 (ip), vehicle: saline
  T/C: 110 % of control
endpoint: median survival time, dose: 100.0 mg/kg/injection, schedule: Q04DX003 (ip), vehicle: saline
  T/C: 121 % of control

## O=c1nc(NCC2CCCO2)ccn1C1OC(CO)C(O)C1O (stereo unspecified)
endpoint: median survival time, dose: 12.5 mg/kg/injection, schedule: Q01DX005 (ip), vehicle: water
  T/C: 101 % of control
endpoint: median survival time, dose: 25.0 mg/kg/injection, schedule: Q01DX005 (ip), vehicle: water
  T/C: 101 % of control
endpoint: median survival time, dose: 50.0 mg/kg/injection, schedule: Q01DX005 (ip), vehicle: water
  T/C: 101 % of control
endpoint: median survival time, dose: 100.0 mg/kg/injection, schedule: Q01DX005 (ip), vehicle: water
  T/C: 97 % of control
endpoint: median survival time, dose: 200.0 mg/kg/injection, schedule: Q01DX005 (ip), vehicle: water
  T/C: 98 % of control

## CCOC(=O)C(CC(C)C)NC(=O)C(Cc1ccc(N(CCCl)CCCl)cc1)NC(C)=O (stereo unspecified)
endpoint: mean survival time, dose: 0.5 mg/kg/injection, schedule: Q01DX009 (ip), vehicle: saline
  T/C: 95 % of control
endpoint: mean survival time, dose: 1.0 mg/kg/injection, schedule: Q01DX009 (ip), vehicle: saline
  T/C: 92 % of control
endpoint: mean survival time, dose: 1.0 mg/kg/injection, schedule: Q04DX003 (ip), vehicle: saline with Tween-80
  T/C: 100 % of control
endpoint: mean survival time, dose: 2.0 mg/kg/injection, schedule: Q01DX001 (ip), vehicle: saline with Tween-80
  T/C: 102 % of control [middle of 4 runs]
endpoint: mean survival time, dose: 2.0 mg/kg/injection, schedule: Q01DX009 (ip), vehicle: Klucel (hydroxypropylcellulose) (HPC)
  T/C: 92 % of control and 95 % of control
endpoint: mean survival time, dose: 2.0 mg/kg/injection, schedule: Q01DX009 (ip), vehicle: saline
  T/C: 94 % of control
endpoint: mean survival time, dose: 2.0 mg/kg/injection, schedule: Q04DX003 (ip), vehicle: saline with Tween-80
  T/C: 96 % of control and 97 % of control and 105 % of control
endpoint: mean survival time, dose: 4.0 mg/kg/injection, schedule: Q01DX001 (ip), vehicle: saline with Tween-80
  T/C: 102 % of control [middle of 4 runs]
endpoint: mean survival time, dose: 4.0 mg/kg/injection, schedule: Q01DX009 (ip), vehicle: Klucel (hydroxypropylcellulose) (HPC)
  T/C: 94 % of control and 95 % of control
endpoint: mean survival time, dose: 4.0 mg/kg/injection, schedule: Q01DX009 (ip), vehicle: saline
  T/C: 101 % of control
endpoint: mean survival time, dose: 4.0 mg/kg/injection, schedule: Q04DX003 (ip), vehicle: saline with Tween-80
  T/C: 105 % of control [middle of 4 runs]
endpoint: mean survival time, dose: 8.0 mg/kg/injection, schedule: Q01DX001 (ip), vehicle: saline with Tween-80
  T/C: 100 % of control and 98 % of control and 102 % of control
endpoint: mean survival time, dose: 8.0 mg/kg/injection, schedule: Q01DX009 (ip), vehicle: Klucel (hydroxypropylcellulose) (HPC)
  T/C: 94 % of control and 105 % of control
endpoint: mean survival time, dose: 8.0 mg/kg/injection, schedule: Q01DX009 (ip), vehicle: saline
  T/C: 110 % of control and 95 % of control and 103 % of control
endpoint: mean survival time, dose: 8.0 mg/kg/injection, schedule: Q04DX003 (ip), vehicle: saline with Tween-80
  T/C: 105 % of control [middle of 5 runs]
endpoint: mean survival time, dose: 16.0 mg/kg/injection, schedule: Q01DX001 (ip), vehicle: saline with Tween-80
  T/C: 102 % of control [middle of 4 runs]
endpoint: mean survival time, dose: 16.0 mg/kg/injection, schedule: Q01DX009 (ip), vehicle: Klucel (hydroxypropylcellulose) (HPC)
  T/C: 97 % of control and 111 % of control
endpoint: mean survival time, dose: 16.0 mg/kg/injection, schedule: Q01DX009 (ip), vehicle: saline
  T/C: 120 % of control and 100 % of control and 121 % of control
endpoint: mean survival time, dose: 16.0 mg/kg/injection, schedule: Q04DX003 (ip), vehicle: saline
  T/C: 110 % of control
endpoint: mean survival time, dose: 32.0 mg/kg/injection, schedule: Q01DX001 (ip), vehicle: saline with Tween-80
  T/C: 104 % of control [middle of 4 runs]
endpoint: mean survival time, dose: 32.0 mg/kg/injection, schedule: Q01DX001 (ip), vehicle: saline
  T/C: 105 % of control
endpoint: mean survival time, dose: 32.0 mg/kg/injection, schedule: Q01DX009 (ip), vehicle: Klucel (hydroxypropylcellulose) (HPC)
  T/C: 114 % of control
endpoint: mean survival time, dose: 32.0 mg/kg/injection, schedule: Q01DX009 (ip), vehicle: saline
  T/C: 101 % of control
endpoint: mean survival time, dose: 32.0 mg/kg/injection, schedule: Q04DX003 (ip), vehicle: saline
  T/C: 118 % of control
endpoint: mean survival time, dose: 64.0 mg/kg/injection, schedule: Q01DX001 (ip), vehicle: saline with Tween-80
  T/C: 114 % of control and 108 % of control and 98 % of control
endpoint: mean survival time, dose: 64.0 mg/kg/injection, schedule: Q01DX001 (ip), vehicle: saline
  T/C: 211 % of control
endpoint: mean survival time, dose: 64.0 mg/kg/injection, schedule: Q01DX009 (ip), vehicle: Klucel (hydroxypropylcellulose) (HPC)
  T/C: 119 % of control
endpoint: mean survival time, dose: 64.0 mg/kg/injection, schedule: Q01DX009 (ip), vehicle: saline
  T/C: 90 % of control
endpoint: mean survival time, dose: 128.0 mg/kg/injection, schedule: Q01DX001 (ip), vehicle: saline with Tween-80
  T/C: 118 % of control and 104 % of control and 106 % of control
endpoint: mean survival time, dose: 128.0 mg/kg/injection, schedule: Q01DX009 (ip), vehicle: saline
  T/C: 95 % of control and 105 % of control
endpoint: mean survival time, dose: 128.0 mg/kg/injection, schedule: Q04DX003 (ip), vehicle: saline with Tween-80
  T/C: 120 % of control and 92 % of control
endpoint: mean survival time, dose: 128.0 mg/kg/injection, schedule: Q04DX003 (ip), vehicle: saline
  T/C: 170 % of control
endpoint: mean survival time, dose: 256.0 mg/kg/injection, schedule: Q01DX001 (ip), vehicle: saline
  T/C: 152 % of control
endpoint: mean survival time, dose: 256.0 mg/kg/injection, schedule: Q01DX009 (ip), vehicle: saline
  T/C: 103 % of control
endpoint: mean survival time, dose: 256.0 mg/kg/injection, schedule: Q04DX003 (ip), vehicle: saline with Tween-80
  T/C: 94 % of control and 107 % of control
endpoint: mean survival time, dose: 256.0 mg/kg/injection, schedule: Q04DX003 (ip), vehicle: saline
  T/C: 120 % of control
endpoint: mean survival time, dose: 512.0 mg/kg/injection, schedule: Q01DX009 (ip), vehicle: saline
  T/C: 117 % of control

## Brc1ccc([Si](c2ccccc2)(c2ccccc2)c2ccc(Br)cc2)cc1
[1]
  T/C: 102 % of control
[2]
  T/C: 108 % of control
[3]
  T/C: 106 % of control

## CC(C)(O)C#CC(C)(C)OC(O)C(Cl)(Cl)Cl (stereo unspecified)
endpoint: mean survival time, dose: 100.0 mg/kg/injection, schedule: Q04DX002 (ip), vehicle: saline with Tween-80
  T/C: 96 % of control
endpoint: mean survival time, dose: 200.0 mg/kg/injection, schedule: Q04DX002 (ip), vehicle: saline with Tween-80
  T/C: 101 % of control
endpoint: mean survival time, dose: 400.0 mg/kg/injection, schedule: Q04DX002 (ip), vehicle: saline with Tween-80
  T/C: 93 % of control

## CCOC(=O)C(C(C)=O)C(=O)/C=C/c1ccccc1 (stereo unspecified)
[1]
  T/C: 98 % of control
[2]
  T/C: 103 % of control
[3]
  T/C: 97 % of control

## CSC(=NC#N)SC
endpoint: mean survival time, dose: 3.13 mg/kg/injection, schedule: Q01DX001 (ip), vehicle: Klucel (hydroxypropylcellulose) (HPC)
  T/C: 101 % of control
endpoint: mean survival time, dose: 6.25 mg/kg/injection, schedule: Q01DX001 (ip), vehicle: Klucel (hydroxypropylcellulose) (HPC)
  T/C: 104 % of control

## Nc1ncnc(N)c1NC(=O)c1ccc(CCCCc2ccccc2)cc1
[1]
  T/C: 104 % of control
[2]
  T/C: 96 % of control
[3]
  T/C: 92 % of control

## NC(=S)N/N=C/c1ccccn1
endpoint: mean survival time, dose: 1.56 mg/kg/injection, schedule: Q04DX002 (ip), vehicle: Klucel (hydroxypropylcellulose) (HPC)
  T/C: 108 % of control
endpoint: mean survival time, dose: 3.12 mg/kg/injection, schedule: Q04DX002 (ip), vehicle: Klucel (hydroxypropylcellulose) (HPC)
  T/C: 112 % of control
endpoint: mean survival time, dose: 6.25 mg/kg/injection, schedule: Q04DX002 (ip), vehicle: Klucel (hydroxypropylcellulose) (HPC)
  T/C: 92 % of control
endpoint: mean survival time, dose: 6.7 mg/kg/injection, schedule: Q01DX009 (ip), vehicle: saline with Tween-80
  T/C: 151 % of control
endpoint: mean survival time, dose: 10.0 mg/kg/injection, schedule: Q01DX009 (ip), vehicle: saline with Tween-80
  T/C: 107 % of control
endpoint: mean survival time, dose: 15.0 mg/kg/injection, schedule: Q01DX009 (ip), vehicle: saline with Tween-80
  T/C: 93 % of control

## O=S1(=O)c2ccccc2C(=NO)c2ccccc21
endpoint: mean survival time, dose: 100.0 mg/kg/injection, schedule: Q04DX003 (ip), vehicle: saline
  T/C: 92 % of control
endpoint: mean survival time, dose: 200.0 mg/kg/injection, schedule: Q04DX003 (ip), vehicle: saline
  T/C: 96 % of control
endpoint: mean survival time, dose: 400.0 mg/kg/injection, schedule: Q04DX003 (ip), vehicle: saline
  T/C: 106 % of control

From PubChem BioAssay AID256 (DTP/NCI, 2004)
